Here are results for 24 compounds from patent US20250346602A1, “LACTAM SUBSTITUTED IMIDAZOPYRIDAZINE IL-17A MODULATORS AND USES THEREOF” (DICE ALPHA, INC., priority 2022, published 2025).

In the experiment the target is T1, IL-17A/A (Homo sapiens, UniProt Q16552).
T1 construct: purchased Genscript Z03228
T1 sequence (Q16552 24-155): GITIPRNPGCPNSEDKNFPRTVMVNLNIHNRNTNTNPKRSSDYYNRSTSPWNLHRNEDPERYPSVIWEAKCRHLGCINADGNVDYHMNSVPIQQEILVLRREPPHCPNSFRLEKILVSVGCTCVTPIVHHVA
Description: IL-17A/A HEK-Blue cell assay. It is filed as cell-based. Conditions: HEK-Blue IL-17A reporter cell line (HEK 293), IL-17A/A stimulation, 20 hours incubation, SEAP read at A630. In a few lines:
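HEK293 reporter cells expressing IL-17RA, IL-17RC and Act1 were given titrated compound (top final 10, 1 or 0.3 uM; 0.1% DMSO) right before IL-17A/A and incubated 20 hours. NFκB-driven SEAP in the media was read at A630 with Quanti-Blue, and IC50 came from a 4-parameter nonlinear fit.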

A word on the IC50: it is the point on the concentration scale where inhibition reaches its midpoint. For `O=C(N[C@H](c1cn2ncc(CC3C[C@@H](C(F)(F)F)NC3=O)cc2n1)C1CCC(F)(F)CC1)c1conc1C1CC1` (single isomer, unassigned) [Compound 219], the half-inhibitory concentration (IC50) was less than 0.1 µM.

Take `CCn1nccc1C(=O)N[C@H](c1cn2ncc(CC3C[C@@H](C(F)(F)F)NC3=O)cc2n1)C(C1CC1)C1CC1` (single isomer, unassigned) [Compound 202]: the IC50 lay within 0.1 to 1 µM. The same measure for `CCn1nccc1C(=O)N[C@H](c1cn2nc(CC3C[C@@H](C(F)(F)F)CNC3=O)ccc2n1)C(C1CC1)C1CC1` (stereo partly drawn) [Compound 96, N-((1S)-2,2-dicyclopropyl-1-(6-(((5R)-2-oxo-5-(trifluoromethyl)piperidin-3-yl)methyl)imidazo[1,2-b]pyridazin-2-yl)ethyl)-1-ethyl-1H-pyrazole-5-carboxamide]: 0.1 to 1 µM; for `CCn1nccc1C(=O)N[C@H](c1cn2nc(CC3CC(F)(F)CNC3=O)c(NC)cc2n1)C1CCC(F)(F)CC1` (single isomer, unassigned) [Compound 73]: 0.1 to 1 µM. Take `CCn1nccc1C(=O)N[C@H](c1cn2nc(CC3C[C@H](C(F)(F)F)CNC3=O)ccc2n1)C1CCCCCC1` (stereo partly drawn) [Compound 177, N—((S)-cycloheptyl(6-(((5S)-2-oxo-5-(trifluoromethyl)piperidin-3-yl)methyl)imidazo[1,2-b]pyridazin-2-yl)methyl)-1-ethyl-1H-pyrazole-5-carboxamide]: the IC50 is less than 0.1 µM. The same measure for `CCn1nccc1C(=O)N[C@H](c1cn2nc(CC3C[C@@H](C(F)(F)F)CNC3=O)c(C(C)C)cc2n1)C1CCC(F)(F)CC1` (stereo partly drawn) [Compound 180, N-((1S)-(4,4-difluorocyclohexyl)(7-isopropyl-6-(((5R)-2-oxo-5-(trifluoromethyl)piperidin-3-yl)methyl)imidazo[1,2-b]pyridazin-2-yl)methyl)-1-ethyl-1H-pyrazole-5-carboxamide]: less than 0.1 µM. Regarding `CCn1nccc1C(=O)N[C@H](c1cn2nc(CC3C[C@@H](C(F)(F)F)NC3=O)ccc2n1)C(C1CC1)C1CC1` (single isomer, unassigned) [Compound 15], the IC50 was greater than 1 µM. The same measure for `O=C(N[C@H](c1cn2nc(CC3C[C@@H](C(F)(F)F)CNC3=O)ccc2n1)C1CCC(F)(F)CC1)c1conc1C1CC1(F)F` (single isomer, unassigned) [Compound 126]: less than 0.1 µM.

In the case of `CC[C@@H](c1ccc(F)cc1)[C@H](NC(=O)c1ccnn1CC)c1cn2ncc(CC3C[C@@H](C(F)(F)F)NC3=O)cc2n1` (single isomer, unassigned) [Compound 217], the IC50 is greater than 1 µM.

As for `CCn1nccc1C(=O)N[C@H](c1cn2nc(CC3CCC(C(F)(F)F)NC3=O)ccc2n1)C(C1CC1)C1CC1` (single isomer, unassigned) [Compound 42], the IC50 is greater than 1 µM. Regarding `CCn1nccc1C(=O)N[C@H](c1cn2nc(CC3C[C@@H](C)NC3=O)ccc2n1)[C@H]1CC[C@H](C)CC1` (single isomer, unassigned) [Compound 63], the IC50 lay within 0.1 to 1 µM. Regarding `Cc1nonc1C(=O)N[C@H](c1cn2nc(C[C@H]3C[C@@H](C(F)(F)F)NC3=O)ccc2n1)C(C1CC1)C1CC1` [Compound 21, N—((S)-2,2-dicyclopropyl-1-(6-(((3R,5S)-2-oxo-5-(trifluoromethyl)pyrrolidin-3-yl)methyl)imidazo[1,2-b]pyridazin-2-yl)ethyl)-4-methyl-1,2,5-oxadiazole-3-carboxamide], the IC50 is greater than 1 µM. Turning to `CCn1nccc1C(=O)N[C@H](c1cn2nc(CC3CC(C4CC4)CNC3=O)ccc2n1)C1CCC(F)(F)CC1` (single isomer, unassigned) [Compound 70], the IC50 was 0.1 to 1 µM. On to `CCc1nonc1C(=O)N[C@H](c1cn2nc(C[C@H]3C[C@@H](C(F)(F)F)NC3=O)ccc2n1)C(C1CC1)C1CC1` [Compound 20, N—((S)-2,2-dicyclopropyl-1-(6-(((3R,5S)-2-oxo-5-(trifluoromethyl)pyrrolidin-3-yl)methyl)imidazo[1,2-b]pyridazin-2-yl)ethyl)-4-ethyl-1,2,5-oxadiazole-3-carboxamide], for which the IC50 lay within 0.1 to 1 µM. For `Cc1n[nH]cc1C(=O)N[C@H](c1cn2nc(CC3C[C@@H](C(F)(F)F)CNC3=O)ccc2n1)C1CCC(F)(F)CC1` (stereo partly drawn) [Compound 135, N-((1S)-(4,4-difluorocyclohexyl)(6-(((5R)-2-oxo-5-(trifluoromethyl)piperidin-3-yl)methyl)imidazo[1,2-b]pyridazin-2-yl)methyl)-3-methyl-1H-pyrazole-4-carboxamide], the IC50 was greater than 1 µM. Consider `CCn1nccc1C(=O)N[C@H](c1cn2nc(CC3C[C@@H](C(F)(F)F)CNC3=O)c(S(C)(=O)=O)cc2n1)C1CCC(F)(F)CC1` (stereo partly drawn) [Compound 184, N-((1S)-(4,4-difluorocyclohexyl)(7-(methylsulfonyl)-6-(((5R)-2-oxo-5-(trifluoromethyl)piperidin-3-yl)methyl)imidazo[1,2-b]pyridazin-2-yl)methyl)-1-ethyl-1H-pyrazole-5-carboxamide], for which the IC50 is 0.1 to 1 µM. With `CCn1nccc1C(=O)N[C@H](c1cn2nc(CC3C[C@@H](C(F)(F)F)CNC3=O)c(C(C)(C)O)cc2n1)C1CCC(F)(F)CC1` (stereo partly drawn) [Compound 186, N-((1S)-(4,4-difluorocyclohexyl)(7-(2-hydroxypropan-2-yl)-6-(((5R)-2-oxo-5-(trifluoromethyl)piperidin-3-yl)methyl)imidazo[1,2-b]pyridazin-2-yl)methyl)-1-ethyl-1H-pyrazole-5-carboxamide], the IC50 was less than 0.1 µM.

Turning to `CCn1nccc1C(=O)N[C@H](c1cn2ncc(CC3C[C@@H](C(F)(F)F)CNC3=O)cc2n1)[C@H]1CC[C@H](C)CC1` (single isomer, unassigned) [Compound 216], the IC50 lay in the range of 0.1 to 1 µM. For `CCn1nccc1C(=O)N[C@H](c1cn2nc(CC3CCCNC3=O)ccc2n1)C1CCCCCC1` (single isomer, unassigned) [Compound 11], the IC50 is greater than 1 µM. As for `CCn1nccc1C(=O)N[C@H](c1cn2nc(CC3CCNC3=O)ccc2n1)C1CCCCCC1` (single isomer, unassigned) [Compound 4], the IC50 lay in the range of 0.1 to 1 µM.

Turning to `CCn1nccc1C(=O)N[C@H](c1cn2nc(CC3CC(C(C)(F)F)NC3=O)ccc2n1)C1CCC(F)(F)CC1` (single isomer, unassigned) [Compound 69], the IC50 fell in the range of 0.1 to 1 µM. In the case of `CC[C@@H](c1ccc(F)cc1)[C@H](NC(=O)c1ccnn1CC)c1cn2ncc(CC3C[C@@H](C(F)(F)F)NC3=O)cc2n1` (single isomer, unassigned) [Compound 218], the IC50 is less than 0.1 µM. In the case of `CCn1nccc1C(=O)N[C@H](c1cn2nc(C(C)C3C[C@@H](C(F)(F)F)CNC3=O)ccc2n1)C(C1CC1)C1CC1` (single isomer, unassigned) [Compound 57], the IC50 was greater than 1 µM. Regarding `CCn1nccc1C(=O)N[C@H](c1cn2nc(CC3C[C@@H](C(F)(F)F)CNC3=O)c(C(=O)O)cc2n1)C1CCC(F)(F)CC1` (stereo partly drawn) [Compound 187, 2-((S)-(4,4-difluorocyclohexyl)(1-ethyl-1H-pyrazole-5-carboxamido)methyl)-6-(((5R)-2-oxo-5-(trifluoromethyl)piperidin-3-yl)methyl)imidazo[1,2-b]pyridazine-7-carboxylic acid], the IC50 was in the range of 0.1 to 1 µM.
